For one assay, the system named is INS-1 cells. The assay can be described thus: Cytokine-induced apoptosis in pancreatic β-cells (INS-1, nucleosomal release ELISA). Type of assay: cell-based, rat. Conditions: IL-1β + IFN-γ, 24 h, IGF-I 10 nM, mean ± SEM of 4-5 experiments.
In another assay the test system is K6 myoblasts. The assay is described as follows: DNA synthesis (BrdU incorporation) in K6 myoblasts. To be noted: serum-starved K6 myoblasts, 16 h; FCS at 10%. Type of assay: cell-based, rat. Background: Dividing cells build labelled thymidine or BrdU into new DNA.

Method for INS-1 cells: The rat insulinoma cell line INS-1 was grown in RPMI 1640 medium supplemented with 10% heat-inactivated fetal calf serum (FCS), 500 U/ml penicillin, 50 μg/ml streptomycin, 2 mmol/l glutamine and 50 μmol/l 2-mercaptoethanol and passaged by trypsinization. Functional integrity of the cells was confirmed by measuring glucose-stimulated insulin secretion. INS-1 cells were routinely seeded at 3.5×10^5 cells/well of a 12-well plate for cell death detection experiments and used on day 4 at 60-70% confluence.
Subconfluent INS-1 cells were incubated for 2 h in RPMI 1640 medium (Eggenstein, Germany) without FCS supplemented with 0.5% BSA. After this serum free period the medium was removed and replaced with fresh RPMI 1640 containing 5% FCS and 0.5% BSA. […] The induced apoptosis was measured by the specific determination of mono- and oligonucleosomes in the cytoplasmatic fraction of cell lysates using a cell death detection ELISA kit (Roche). The assay is based on a quantitative sandwich-enzyme-immunoassay-principle using mouse monoclonal anti-histone and anti-DNA peroxidase antibodies. The relative degree of apoptotic cell death was photometrically determined by measuring the peroxidase activity of the immunocomplexes at 405 nm. […]
Method for K6 myoblasts: Effects of insulin, insulin analogs and IGF-I on the incorporation of 5-bromo-2′-deoxyuridine (BrdU) into DNA in K6 myoblasts. Myoblasts were serum-starved for 30 h in DMEM and subsequently incubated with BrdU in the absence (basal) or presence of the indicated concentrations of peptide hormones or fetal calf serum (FCS) for 16 h. Cells were fixed, denatured and the incorporation of BrdU was determined using an anti-BrdU antiserum and ECL detection. Data are mean values±SEM of four separate experiments.
For monitoring DNA synthesis, K6 myoblasts (1×10^4 cells/well) were seeded in 24-well microtiter tissue culture plates and were cultured for 24 h in DMEM containing 10% FCS, followed by a 30 h culture period under serum-free conditions. Cells were then stimulated with the different peptide hormones or 10% FCS for 16 h with the simultaneous addition of 5-bromo-2′-deoxyundine (BrdU). After removing the labeling mediums the cells were fixed and the DNA was denatured by addition of FixDenat (Boehringer Mannheim, Germany). Cells were then incubated with a peroxidase-conjugated anti-BrdU antiserum, and after addition of substrate the light emission was quantified on a Lumilmager work station.

As to “IGF-I: insulin-like growth factor I, peptide hormone used as comparator”, in the assay on INS-1 cells, the “Inhibition of cytokine-induced apoptosis” value was 42 ± 2%. The “Increase in BrdU-incorporation / DNA synthesis, fold” value in the assay with K6 myoblasts was 4 fold.

These data come from US20070099821A1, “METHOD OF ACTIVATING INSULIN RECEPTOR SUBSTRATE-2 TO STIMULATE INSULIN PRODUCTION” (Sanofi-Aventis Deutschland GmbH, priority 2001, published 2007).
